{"source": "ChEMBL document CHEMBL1833928", "about": "“Metabolism evaluation of the anticancer candidate AC04 by biomimetic oxidative model and rat liver microsomes” (Eur J Med Chem, 2011)", "key": {"CCRF S-180": {"test_system": "CCRF S-180", "experiment": "Antitumor activity against mouse S180 cells xenografted in mouse assessed as reduction of tumor weight at 100 umol/kg/day, ip administered after 48 hrs of tumor inoculation qd for 8 days", "format": "functional", "design": "scale not given: the % may be the effect or the level left"}, "Plasma": {"test_system": "Plasma", "experiment": "Drug metabolism in Wistar rat plasma assessed as 1-oxo-AC04 at 1.5 mg/kg, iv administered as single dose after 120 hrs by LC-MS/MS analysis", "format": "ADME, organism-based", "design": "dose 1.5 mg/kg, route intravenous", "conditions": "in vivo; call rule not given here"}, "Liver microsomes": {"test_system": "Liver microsomes", "experiment": "Drug metabolism in Wistar rat liver microsomes assessed as 1-oxo-AC04 after 60 mins by LC-MS/MS analysis", "format": "ADME, Microsome", "conditions": "1 h"}}, "data": [{"smiles": "Cc1ccc(CN2C(=O)S/C(=C\\c3c4ccccc4nc4ccccc34)C2=O)cc1", "values": [{"measurement": "Activity", "setting": "CCRF S-180", "value": 85, "unit": "%"}, {"measurement": "Drug metabolism", "setting": "Plasma", "value": "Active"}, {"measurement": "Drug metabolism", "setting": "Liver microsomes", "value": "Active"}]}]}
